Data on 55 substances can be found in patent US9522962B2, “Peptides, conjugates and method for increasing immunogenicity of a vaccine” (Academisch Ziekenhuis Leiden h.o.d.n. LUMC, priority 2010, dated 2016).

Entries after “also recorded” stand apart in the source; their conditions may differ. Like-named read-outs stand apart in the source and are kept apart here. Square brackets hold non-standard residues; d marks the D form. Ends that are not written are not given here. * marks the point of attachment. Biotin = O=C1N[C@H]2[C@H](CS[C@H]2CCCCC(=O)*)N1; code O = not defined here; Ahx = NCCCCCC(=O)O; For = O=C*

The experiment relates to antibodies in TETAQUIN® (anti-TTd antibodies). Format: binding, human. Particulars: for binding to TETAQUIN (screen of overlapping 22-mer TTx peptides): FIG. 3 (α-chain), FIG. 4 (β-chain).
Setting [1] is: Table 2, length variants of peptide β-32, section 'With linker', […] diluted 800x, OD at 415 nm.
The mark [2] stands for this setting: Table 2, length variants of peptide β-32, section 'Without linker' (sequence listed without Z O), […].
The mark [3] stands for this setting: Table 3, further length variants and Lys(formyl) variants, […], neg. control OD 0.30.
Setting [4] is: Table 4, antibody source not given.

Substance “L K K L E S K I Z O (LKKLESKI-{Ahx-code O}; reading uncertain) [P29]” showed an OD under setting [1] of 0.2 and an OD under setting [2] of 0.2.

For “F I G I T E L J J L E S K I Z O [0925-67, J = Lys(formyl)]”, the OD under setting [3] stood at 1.15.

Turning to “F I G I T E L K K L E S K I Z O (FIGITELKKLESKI-{Ahx-code O}; reading uncertain) [P11]”, the OD came to 1.0 under setting [1] and 1.0 under setting [2].

“FIGITELKKLESKINKVFST Z O [0925-52]” gave an OD under setting [3] of 1.85.

Consider ELGKKFNIKTRLSYFSMNHDPVZO [α31], for which the “binding to TETAQUIN (screen of overlapping 22-mer TTx peptides)” value (shortened to “binding to TETAQUIN”) was “good binding; also recorded: antibodies present”.

In the case of “S K F I G I T E L K K L E S K I Z O (SKFIGITELKKLESKI-{Ahx-code O}; reading uncertain) [P7]”, the OD is, setting by setting: under setting [1], 1.15; under setting [2], 1.15.

As to “F I G I T E L K K L E S K I N Z Z O (FIGITELKKLESKIN[Ahx][Ahx]K(Biotin))”, the “ELISA OD, effect of longer spacer and C- versus N-terminal biotinylation” value under setting [4] is listed as 0.64.

In the case of “QYIKANSKFIGITELKKLES Z O (QYIKANSKFIGITELKKLES-{Ahx-code O}; reading uncertain) [P3]”, the OD was found to be 1.1 under setting [1] and 1.1 under setting [2].

Regarding “I K A N S K F I G I T E Z O (IKANSKFIGITE-{Ahx-code O}; reading uncertain) [P20]”, the OD is, setting by setting: under setting [1], 0.2; under setting [2], 0.2.

For J Z F I G I T E L K K L E S K I N K V F, under setting [4], the “ELISA OD, effect of longer spacer and C- versus N-terminal biotinylation” value stood at 0.17.

In turn, “F I G I T E L K K L E S Z O (FIGITELKKLES-{Ahx-code O}; reading uncertain) [P17]” came in with an OD under setting [1] of 0.45 and an OD under setting [2] of 0.45.

For the substance “Q Y I K A N S K F I G I T E Z O (QYIKANSKFIGITE-{Ahx-code O}; reading uncertain) [P15]”, the OD reads like this: under setting [1], 0.25; under setting [2], 0.25.

As to “J Z SKFIGITELKKLESKINKVF”, under setting [4], the “ELISA OD, effect of longer spacer and C- versus N-terminal biotinylation” value came to 0.28.

For the substance “G I T E L K K L E S Z O (GITELKKLES-{Ahx-code O}; reading uncertain) [P23]”, the OD is on record as 0.25 under setting [1] and 0.25 under setting [2].

“F I G I T E L K K L E S K I Z Z O (FIGITELKKLESKI[Ahx][Ahx]K(Biotin))”: the “ELISA OD, effect of longer spacer and C- versus N-terminal biotinylation” value under setting [4] is listed as 0.79.

In the case of “Q Y I K A N S K F I Z O (QYIKANSKFI-{Ahx-code O}; reading uncertain) [P28]”, the OD by setting is: under setting [1], 0.2; under setting [2], 0.2.

In the case of “G I T E L K K L E S K I N K Z O (GITELKKLESKINK[Ahx]K(Biotin)) [0925-59]”, under setting [3], the OD came out at 0.75.

As to “A N S K F I G I T E L K K L E S Z O (ANSKFIGITELKKLES-{Ahx-code O}; reading uncertain) [P8]”, the OD under setting [1] worked out at 0.85 and the OD under setting [2] is recorded as 0.85.

Under setting [3], “F I G I T E L K K L E S K I N K V F S Z O [0925-53]” returned an OD of 1.90.

“S K F I G I T E L K Z O (SKFIGITELK-{Ahx-code O}; reading uncertain) [P25]”: the OD turned out to be 0.2 under setting [1] and 0.2 under setting [2].

For “F I G I T E L K K L E S K I N K V F Z Z O (FIGITELKKLESKINKVF[Ahx][Ahx]K; not fully specified (residue 21); also: O: biotin modification, exact residue form not clear)”, the “ELISA OD, effect of longer spacer and C- versus N-terminal biotinylation” value under setting [4] amounted to 1.16.

“A N S K F I G I T E L K K L Z O (ANSKFIGITELKKL-{Ahx-code O}; reading uncertain) [P13]”: the OD is on record as 0.6 under setting [1] and 0.6 under setting [2].

Take “S K F I G I T E L K K L Z O (SKFIGITELKKL-{Ahx-code O}; reading uncertain) [P18]”: the OD by setting is: under setting [1], 0.45; under setting [2], 0.45.

With “T E L K K L E S Z O (TELKKLES-{Ahx-code O}; reading uncertain) [P30]”, the OD was determined as 0.2 under setting [1] and 0.2 under setting [2].

On to “Q Y I K A N S K F I G I T E L K Z O (QYIKANSKFIGITELK-{Ahx-code O}; reading uncertain) [P10]”, for which the OD reads like this: under setting [1], 0.25; under setting [2], 0.25.

As for “I K A N S K F I G I T E L K Z O (IKANSKFIGITELK-{Ahx-code O}; reading uncertain) [P14]”, the OD is 0.2 under setting [1] and 0.2 under setting [2].

Regarding “F I G I T E L K Z O (FIGITELK-{Ahx-code O}; reading uncertain) [P32]”, the OD is given as 0.2 under setting [1] and 0.2 under setting [2].

Substance “F I G I T E L J K L E S K I Z O [0925-64, J = Lys(formyl)]” displayed an OD under setting [3] of 1.70.

“Q Y I K A N S K F I G I T E L K K L Z O (QYIKANSKFIGITELKKL-{Ahx-code O}; reading uncertain) [P6]” gave an OD under setting [1] of 0.75 and an OD under setting [2] of 0.75.

Consider AMDIEYNDMFNNFTVSFWLRVPZO [β41], for which the “binding to TETAQUIN” value is given as “good binding; also recorded: antibodies present”.

“A N S K F I G I T E L K K L E S K I Z O (ANSKFIGITELKKLESKI-{Ahx-code O}; reading uncertain) [P4]”: the OD is 1.05 under setting [1] and 1.05 under setting [2].

Take SLTDLGGELCIKIKNEDLTFIAZO [β1]: the “ELISA OD, effect of longer spacer and C- versus N-terminal biotinylation” value was found to be 0.12.

“Q Y I K A N S K F I G I Z O (QYIKANSKFIGI-{Ahx-code O}; reading uncertain) [P21]”: the OD is, setting by setting: under setting [1], 0.2; under setting [2], 0.2.

On to “I K A N S K F I G I T E L K K L Z O (IKANSKFIGITELKKL-{Ahx-code O}; reading uncertain) [P9]”, for which the OD amounted to 0.6 under setting [1] and 0.6 under setting [2].

Turning to IGALETTGVVLLLEYIPEITLPZO [β18], the “binding to TETAQUIN” value was “good binding; also recorded: antibodies present”.

“F I G I T E L J J L E S J I Z O [0925-70, J = Lys(formyl)]” came in with an OD under setting [3] of 1.00.

In turn, “F I G I T E L K J L E S K I Z O [0925-65, J = Lys(formyl)]” returned an OD under setting [3] of 1.50.

Turning to “G I T E L K K L E S K I Z O (GITELKKLESKI-{Ahx-code O}; reading uncertain) [P16]”, the OD turned out to be 0.45 under setting [1] and 0.45 under setting [2].

On to “G I T E L K K L Z O (GITELKKL-{Ahx-code O}; reading uncertain) [P31]”, for which the OD by setting is: under setting [1], 0.2; under setting [2], 0.2.

“F I G I T E L K K L E S J I Z O (FIGITELKKLESK(For)I[Ahx]K; not fully specified (residue 16)) [0925-66, J = Lys(formyl)]”: the OD under setting [3] is on record as 2.10.

As for KALNPKEIEKLYTSYLSITFLRZO [β54], the “binding to TETAQUIN” value is given as “good binding; also recorded: antibodies present”.

“F I G I T E L K K L E S K I N K Z O (FIGITELKKLESKINK[Ahx]K(Biotin)) [0925-56]” yielded an OD under setting [3] of 1.55.

As to KFNAYLANKWVFITITNDRLSSZO [β48], the “binding to TETAQUIN” value is given as “good binding; also recorded: antibodies present”.

On to “J Z Z SKFIGITELKKLESKINKVF (SKFIGITELKKLESKINKVF) [J = Biotin (N-terminal), Z = Ahx]”, for which, under setting [4], the “ELISA OD, effect of longer spacer and C- versus N-terminal biotinylation” value worked out at 0.47.

As to “T E L K K L E S K I N K V F Z O (TELKKLESKINKVF[Ahx]K(Biotin)) [0925-61]”, the OD under setting [3] amounted to 0.35.

As to “F I G I T E L K K L E S K I N K V Z Z O (FIGITELKKLESKINKV[Ahx][Ahx]K(Biotin))”, the “ELISA OD, effect of longer spacer and C- versus N-terminal biotinylation” value under setting [4] stood at 0.68.

With “S K F I G I T E L K K L E S Z O (SKFIGITELKKLES-{Ahx-code O}; reading uncertain) [P12]”, the OD is, setting by setting: under setting [1], 0.8; under setting [2], 0.8.

Regarding “T E L K K L E S K I Z O (TELKKLESKI-{Ahx-code O}; reading uncertain) [P22]”, the OD was found to be 0.2 under setting [1] and 0.2 under setting [2].

As to “IKANSKFIGITELKKLESKI Z O (IKANSKFIGITELKKLESKI-{Ahx-code O}; reading uncertain) [P2]”, the OD by setting is: under setting [1], 1.2; under setting [2], 1.2.

Turning to “F I G I T E L K K L E S K I N K Z Z O (FIGITELKKLESKINK[Ahx][Ahx]K(Biotin))”, the “ELISA OD, effect of longer spacer and C- versus N-terminal biotinylation” value under setting [4] is reported as 0.65.

Turning to “I K A N S K F I G I Z O (IKANSKFIGI-{Ahx-code O}; reading uncertain) [P27]”, the OD reads like this: under setting [1], 0.2; under setting [2], 0.2.

Under setting [3], “L K K L E S K I N K V F S T Z O (LKKLESKINKVFST[Ahx]K(Biotin)) [0925-63]” had an OD of 0.40.

As for “S K F I G I T E Z O (SKFIGITE-{Ahx-code O}; reading uncertain) [P33]”, the OD is on record as 0.2 under setting [1] and 0.2 under setting [2].

With “A N S K F I G I T E L K Z O (ANSKFIGITELK-{Ahx-code O}; reading uncertain) [P19]”, the OD amounted to 0.2 under setting [1] and 0.2 under setting [2].

With “A N S K F I G I Z O (ANSKFIGI-{Ahx-code O}; reading uncertain) [P34]”, the OD under setting [1] was 0.2 and the OD under setting [2] came out at 0.2.
